The subject of data set [1] is A549 cells. In words: 8-OHdG DNA damage quantification. Format: cell-based, human. The note with it: 16 μM, 4 h. As for the experimental part:
(§1) DNA damage was measured using EpiQuik 8-OHdG DNA Damage Quantification Direct Kit (colorimetric) (Fischer, Waltham, MA, USA, P600396); The mitochondrial cytochrome C release was evaluated using the “Millipore’s FlowCellect Cytochrome C Kit (Millipore, FCCH100110)”. Lactate dehydrogenase activity release was measured in the culture medium using Cytotoxicity Detection Kit (Roche Diagnostic, Barcelona, Spain, 11 644 793 001). Protein synthesis was determined using Click-iT Plus O-propargyl-puromycin (OPP) Protein Synthesis Assay Kit (Invitrogen™, Waltham, MA, USA). Measurement of GSH/GSSG was determined with GSH/GSSG-Glo Assay (Promega, V6611). Measurements of OCR and ECAR with Seahorse XFp (Agilent Technologies) were determined using the XFp Cell Mito Stress Test Kit (103010-100) and XFp Glycolysis Stress Test Kit (103017-100). ATP measurement was determined with Cell Titer-Glo Luminescent Cell Viability Assay (Promega, Madison, WI, USA, G7570). Determination of DNA damage using phosphorylated H2AX measurement were performed as previously described. Cardiolipin oxidation using the fluorophore Nonyl Acridine Orange (NAO, Thermo Scientific, A1372) was performed as described. Cell viability was determined by Hoechst inclusion and Propidium iodide (PI) exclusion by standard protocols. TEM analysis were performed as described. […]

For data set [2], the system named is A549 cells. The data set is described as follows: GSH/GSSG-Glo assay. Format: cell-based, human. Particulars: 1 h. How it is done: as §1
In data set [3] the test system is A549 cells. The data set is described as follows: Cardiolipin oxidation (NAO, flow cytometry). Particulars: 4 h. Format: cell-based, human. As for the experimental part:
as §1
On the technique in general: A flow cytometer gives signals particle by particle.

In data set [4] the test system is caspases 3/7. In words: Caspase 3/7 detection (CellEvent). The class given is cell-based, human. Particulars: A549, 16 µM, up to 24 h. As for the experimental part: (§2) Specific assays with 1[C,NH] complex were performed according to manufacturer’s instructions using the following reagents from Molecular Probes (Thermo Fisher Scientific): Measurements of ROS: Dihydroethidium (DHE, D11347) and 2′, 7′-dichlorodihydrofluorescein diacetate (H2DCFDA, D399); detection of caspases 3/7: CellEvent Caspase-3/7 Green Detection Reagent (C10423); Cell viability: Live/Dead Cell Imaging Kit (R37601); Analysis of cytosolic calcium concentration: Fluo3/AM (F23915); Analysis of MMP: Tetramethylrhodamine methyl ester perchlorate (TMRM, T668). RT-qPCR’s assays were performed with the following primers/probes from Thermo Fisher Scientific: DCP1A (Hs00218198-m1), FOSB (Hs00171851-m1), EGR1(Hs0015928-m1), ATF3 (Hs00231069-m1), DDIT3 (Hs00358796-g1), PP1R15A (Hs00169585-m1), CHAC1(Hs00225520-m1), MIR9-1 (Hs04231512-s1), ATP1B2 (Hs00155922-m1), BBC3 (Hs00248075-m1), BCL2L11 (Hs00798019-s1), PMAIP1 (Hs00560402-m1), SKP2 (Hs01021864-m1) and HIST1H1B (Hs00271207-s1). RT-qPCR experiments were performed as described.

Data set [5] concerns A549 cells. The data set is described as follows: Lactate dehydrogenase release. Format: cell-based, human. Particulars: 16 µM, 1% FBS. As for the experimental part: as §1
In data set [6] the test system is A549 cells. In words: Hoechst/propidium iodide staining. The class given is cell-based, human. The note with it: 16 μM. How it is done: as §1
Data set [7] deals with A549 cells. The data set is described as follows: Mitochondrial membrane potential (TMRM). Format: cell-based, human. The note with it: 16 µM, TMRM 50 nM. How it is done:
as §2

Data set [8] concerns CHOP. The data set is described as follows: CHOP induction (CHOP::GFP plasmid). The class given is cell-based, human. The note with it: HEK293, 9.7 µM, 24 h time-lapse. As for the experimental part: CHOP induction. HEK293 cells were seeded at 8 × 10^5 cell/well in 24-well plates and transfected with CHOP::GFP plasmid (Addgene plasmid #21898; http://n2t.net/addgene:21898; RRID:Addgene_21898, 10 November 2022) using the transfection reagent DreamFectTM Gold (OZ Bioscience, Cat. N. º LM80250). After 24 h incubation, the treatments were added: 1[C,NH] 9.7 µM; tunicamycin 0.5 µM as positive control. Cells were stained with propidium iodide (1 µg/mL). Time-lapse images were acquired every 30 min for 24 h.

For data set [9], the system named is BALB/c mice. The data set is described as follows: Acute toxicity in healthy mice. Particulars: dissolved in PBS. Format: in vivo, mouse. The source says: Female mice weighing approximately 20–25 g, 8–12 weeks were obtained from Janvier Laboratories (Le Genest-Saint-Isle, France). All mice received a standard laboratory diet and water ad libitum. The use of immunosuppressed animals is always a limitation since they are not a true reflection of an animal with a functional immune system and, therefore, can affect both the toxicological response and the biodistribution of a compound, but they are essential to be able to implant human tumor cells, otherwise the tumor would be rejected by the immune system. Therefore, in order to analyze the biodistribution, toxicology and efficacy of a compound against a tumor, it is necessary to use different animals. Animal studies were approved by the Bioethics Committee of the Universidade de Santiago de Compostela and were done in compliance with the principles of laboratory animal care according to Spanish national law (RD 53/2013).

For data set [10], the system named is BALB/c mice. The data set is described as follows: Biodistribution (ICP-MS of organs). The class given is in vivo, mouse. Particulars: 4 h after i.v. injection. How it is done: Biodistribution studies: BALB/c mice were injected via the tail vein with 100 µL of 1[C,NH] dissolved in PBS. Then, 4 h after the injection, the animals (n = 3) were sacrificed, and the following organs were removed: kidney, spleen, liver, heart, lung, pancreas, intestine, ovary and stomach. They were kept at −80 °C until their analysis at the Cactus-Lugo Instrumental Analysis Unit. Solutions were diluted to a final volume of 10 mL MilliQ water and measured on an Agilent 7700x-ICP-MS.

The structures appear in SMILES notation.

Results on 1 compound are retold here after PMC9818021, “Targets, Mechanisms and Cytotoxicity of Half-Sandwich Ir(III) Complexes Are Modulated by Structural Modifications on the Benzazole Ancillary Ligand” (Cancers, 2022).

In the case of `Cc1c(C)c(C)[c-](C)c1C.[Cl][Ir]1[c]2ccccc2-c2[nH]c3ccccc3[n+]21` [1[C,NH], [(η^5-Cp*)IrCl(κ^2-N,C-pbim)]], in [1], the 8-OHdG levels entry is on record as “increased after 4 h”. Also, in [2], the GSH/GSSG ratio result was “decreased the GSH/GSSG ratio”. In addition, the Cardiolipin oxidation entry in data set [3] is “induced CL oxidation”. Moreover, the “Caspase 3/7 activity” value in data set [4] was “induced caspase 3/7 activation”. Moreover, the “LDH release to the medium” value in [5] is “only began after 8 h of incubation”. In data set [6], the PI positive cells result was “absent during the first 6 h of treatment”. For the same compound, in data set [7], the “Mitochondrial membrane potential (MMP)” value was “quick and deep dissipation of MMP”. The CHOP expression result in [8] was “increased expression”. Besides, in [9], the Maximum tolerated dose came to 1.3 mg/kg. In addition, the “Tissues with the highest accumulation” value in data set [10] is “liver, kidneys and lungs”.
